In ChEMBL document CHEMBL1148194, “Dysinosins B-D, inhibitors of factor VIIa and thrombin from the Australian sponge Lamellodysidea chlorea” (J Nat Prod, 2004) one finds Ki data, which are given here for four compounds.

pKi: −log10 of the molar value.

One assay addresses T1, Coagulation factor VII (Homo sapiens, UniProt P08709).
T1 sequence (P08709 whole entry): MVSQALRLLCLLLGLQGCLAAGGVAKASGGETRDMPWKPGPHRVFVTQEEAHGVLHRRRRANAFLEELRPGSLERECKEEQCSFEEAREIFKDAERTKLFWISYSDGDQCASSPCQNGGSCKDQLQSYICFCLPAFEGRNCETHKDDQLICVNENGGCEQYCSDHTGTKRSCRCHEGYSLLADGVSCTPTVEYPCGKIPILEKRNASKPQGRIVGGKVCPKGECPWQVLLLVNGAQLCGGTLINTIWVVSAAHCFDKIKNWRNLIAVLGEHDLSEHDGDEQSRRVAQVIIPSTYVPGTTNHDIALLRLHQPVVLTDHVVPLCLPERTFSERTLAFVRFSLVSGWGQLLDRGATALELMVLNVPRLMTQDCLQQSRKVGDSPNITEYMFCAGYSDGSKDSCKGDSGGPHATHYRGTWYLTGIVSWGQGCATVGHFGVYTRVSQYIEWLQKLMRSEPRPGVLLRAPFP
The assay is described as follows: Inhibition of factor 7a by spectrophotometric assay.

For a further assay, the target named is Prothrombin (Homo sapiens, UniProt P00734). The assay is described as follows: Inhibition of thrombin by spectrophotometric assay.

Regarding `CO[C@H](COS(=O)(=O)[O-])C(=O)N[C@H](C(=O)N1[C@H](C(=O)NCCC2=CC[N+](=C(N)N)C2)C[C@@H]2C[C@H](O)[C@@H](O)C[C@@H]21)C(C)C` [DYSINOSIN C], the pKi (in general, −log10 of the Ki, conventionally taken in molar units) at Coagulation factor VII is 6.91; at Prothrombin it was 6.26.
On to `CO[C@H](COS(=O)(=O)[O-])C(=O)N[C@H](CC(C)C)C(=O)N1[C@H](C(=O)NCCC2=CC[N+](=C(N)N)C2)C[C@@H]2C[C@H](O)[C@@H](O)C[C@@H]21` [DYSINOSIN A], for which the figures for the pKi at Coagulation factor VII and at Prothrombin were 6.97 and 6.34, respectively.
As for `CO[C@H](COS(=O)(=O)[O-])C(=O)N[C@H](C(=O)N1[C@H](C(=O)NCCC2=CC[N+](=C(N)N)C2)C[C@@H]2C[C@H](O)[C@@H](O[C@H]3O[C@H](CO)[C@@H](O)[C@H](O)[C@H]3O)C[C@@H]21)C(C)C` [DYSINOSIN B], the pKi was 7.05 at Coagulation factor VII and 6.77 on Prothrombin.
In the case of `CO[C@H](CO)C(=O)N[C@H](C(=O)N1[C@H](C(=O)NCCC2=CC[N+](=C(N)N)C2)C[C@@H]2C[C@H](O)[C@@H](O)C[C@@H]21)C(C)C` [DYSINOSIN D], the results for the negative-log Ki (pKi) at Coagulation factor VII and on Prothrombin were 5.88 and below 5.29, respectively.
